Data published in patent US9617260B2, “Inhibitors of bruton's tyrosine kinase” (Hoffmann-La Roche Inc., priority 2013, dated 2017).

Target: Bruton's Tyrosine Kinase (BTK), inactivated state (Homo sapiens (Human), UniProt Q06187)
Assay: Bruton's Tyrosine Kinase (BTK) Inhibition TR-FRET (Time Resolved FRET) competition assay
Type: binding
Details: competition with Kinase Tracer 178 for BTK-Eu; plates incubated 18-24 h at 14° C.
Protocol: Bruton's Tyrosine Kinase (BTK) Inhibition TR-FRET (Time Resolved FRET) Assay
This BTK competition assay measures compound potency (IC50) for the inactivated state of Bruton's Tyrosine Kinase using FRET (Förster/Fluoresence Resonance Energy Transfer) technology. The BTK-Eu complex was incubated on ice one hour prior to use at a starting concentration of 50 nM BTK-Bioease™: 10 nM Eu-streptavidin (Perkin-Elmer Catalog #AD0062). The assay buffer consisted of 20 mM HEPES (pH 7.15), 0.1 mM DTT, 10 mM MgCl2, 0.5 mg/ml BSA with 3% Kinase Stabilizer (Fremont Biosolutions, Catalog #STB-K02). After 1 h, the reaction mixture from above was diluted 10 fold in assay buffer to make 5 nM BTK: 1 nM Eu-Streptavidin complex (donor fluorophore). 18 μl of a mixture of 0.11 nM BTK-Eu and 0.11 nM Kinase Tracer 178 (Invitrogen, Catalog #PV5593,) with BTK-Eu alone as no negative control, was then dispensed into 384-well flat bottom plates (Greiner, 784076). Compounds to be tested in assay were prepared as 10× concentrations and serial dilution in half-log increments was performed in DMSO so as to generate 10 point curves. To initiate the FRET reaction, compounds prepared as 10× stock in DMSO was added to the plates and the plates were incubated 18-24 h at 14° C.
After the incubation the plates were read on a BMG Pherastar Fluorescent plate reader (or equivalent) and used to measure the emission energy from the europium donor fluorophore (620 nm emission) and the FRET (665 nm emission). The negative control well values were averaged to obtain the mean minimum. The positive “no inhibitor” control wells were averaged to obtain the mean maximum. Percent of maximal FRET was calculated using following equation: % max FRET=100×[(FSRcmpd−FSRmean min)/(FSRmean max−FSRmean min)]
where FSR=FRET Signal ratio. % Max FRET curves were plotted in Activity Base (Excel) and the IC50 (%), hill slope, z′ and % CV were determined The mean IC50 and standard deviation will be derived from duplicate curves (singlet inhibition curves from two independent dilutions) using Microsoft Excel.
Representative compound data for this assay are listed below in Table II.

Chain of Bruton's Tyrosine Kinase (BTK), inactivated state (Q06187 whole entry): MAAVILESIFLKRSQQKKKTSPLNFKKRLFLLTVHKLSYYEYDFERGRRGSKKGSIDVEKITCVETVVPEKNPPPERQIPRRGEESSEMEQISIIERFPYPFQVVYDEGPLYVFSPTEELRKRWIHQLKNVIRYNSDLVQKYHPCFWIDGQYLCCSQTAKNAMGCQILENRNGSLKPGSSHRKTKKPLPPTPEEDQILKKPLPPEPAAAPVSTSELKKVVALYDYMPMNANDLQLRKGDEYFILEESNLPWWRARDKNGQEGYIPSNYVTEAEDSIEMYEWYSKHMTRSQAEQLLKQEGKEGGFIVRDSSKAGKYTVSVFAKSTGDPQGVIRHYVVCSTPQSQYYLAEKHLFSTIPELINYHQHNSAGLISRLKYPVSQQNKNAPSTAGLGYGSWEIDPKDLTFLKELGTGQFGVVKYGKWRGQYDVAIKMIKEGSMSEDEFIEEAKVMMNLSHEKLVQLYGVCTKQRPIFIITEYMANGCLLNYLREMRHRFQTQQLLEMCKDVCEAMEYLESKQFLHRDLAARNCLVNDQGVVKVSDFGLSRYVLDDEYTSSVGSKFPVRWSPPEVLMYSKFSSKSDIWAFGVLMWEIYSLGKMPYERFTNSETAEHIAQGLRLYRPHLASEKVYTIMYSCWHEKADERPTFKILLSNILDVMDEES

Row | IC50 [nM] | SMILES
1 | 1.2 | C=CC(=O)N1CC=C(c2c[nH]c3ncc(NC(=O)OCc4ccccc4)cc23)CC1 [Compound 30, benzyl N-[3-(1-prop-2-enoyl-3,6-dihydro-2H-pyridin-4-yl)-1H-pyrrolo[2,3-b]pyridin-5-yl]carbamate]
2 | 27 | C=CC(=O)N1CCC(c2c[nH]c3ncc(NC(=O)OC(C)C)cc23)CC1 [Compound 32, propan-2-yl N-[3-(1-prop-2-enoylpiperidin-4-yl)-1H-pyrrolo[2,3-b]pyridin-5-yl]carbamate]
3 | 404 | CCC(=O)C(=O)N1CC=C(c2c[nH]c3ncc(NC(=O)OCc4ccccc4Cl)cc23)CC1 [Compound 25, (2-chlorophenyl)methyl N-[3-[1-(2-oxobutanoyl)-3,6-dihydro-2H-pyridin-4-yl]-1H-pyrrolo[2,3-b]pyridin-5-yl]carbamate]
4 | 165 | CC(=O)C(=O)N1CC=C(c2c[nH]c3ncc(NC(=O)OCc4ccccc4Cl)cc23)CC1 [Compound 24, (2-chlorophenyl)methyl N-[3-[1-(2-oxopropanoyl)-3,6-dihydro-2H-pyridin-4-yl]-1H-pyrrolo[2,3-b]pyridin-5-yl]carbamate]
5 | 24 | C=CC(=O)N(C)c1cccc(-c2c[nH]c3ncc(NC(=O)OC(C)C)cc23)c1 [Compound 6, propan-2-yl N-[3-[3-[methyl(prop-2-enoyl)amino]phenyl]-1H-pyrrolo[2,3-b]pyridin-5-yl]carbamate]
6 | 72 | C=C(C(=O)Nc1cccc(-c2c[nH]c3ncc(NC(=O)OCc4ccccc4)cc23)c1)C(F)(F)F [Compound 9, benzyl N-[3-[3-[2-(trifluoromethyl)prop-2-enoylamino]phenyl]-1H-pyrrolo[2,3-b]pyridin-5-yl]carbamate]
7 | 0.6 | C=CC(=O)N1C=C(c2c[nH]c3ncc(NC(=O)OCc4ccccc4)cc23)CCC1 [Compound 33, benzyl N-[3-(1-prop-2-enoyl-3,4-dihydro-2H-pyridin-5-yl)-1H-pyrrolo[2,3-b]pyridin-5-yl]carbamate]
8 | 43.7 | CC(=O)C(=O)Nc1cccc(-c2c[nH]c3ncc(NC(=O)OCc4cccc(F)c4)cc23)c1 [Compound 17, (3-fluorophenyl)methyl N-[3-[3-(2-oxopropanoylamino)phenyl]-1H-pyrrolo[2,3-b]pyridin-5-yl]carbamate]
9 | 7 | CN(C)C/C=C/C(=O)Nc1cccc(-c2c[nH]c3ncc(NC(=O)OCc4ccccc4)cc23)c1 [Compound 1, benzyl N-[3-[3-[[(E)-4-(dimethylamino)but-2-enoyl]amino]phenyl]-1H-pyrrolo[2,3-b]pyridin-5-yl]carbamate]
10 | 210 | CC(=O)C(=O)N1CC=C(c2c[nH]c3ncc(NC(=O)OCc4cccc(F)c4)cc23)CC1 [Compound 28, (3-fluorophenyl)methyl N-[3-[1-(2-oxopropanoyl)-3,6-dihydro-2H-pyridin-4-yl]-1H-pyrrolo[2,3-b]pyridin-5-yl]carbamate]
11 | 384 | CCC(=O)C(=O)N1CC=C(c2c[nH]c3ncc(NC(=O)OCc4cccc(F)c4)cc23)CC1 [Compound 26, (3-fluorophenyl)methyl N-[3-[1-(2-oxobutanoyl)-3,6-dihydro-2H-pyridin-4-yl]-1H-pyrrolo[2,3-b]pyridin-5-yl]carbamate]
12 | 42 | CCC(=O)C(=O)Nc1cccc(-c2c[nH]c3ncc(NC(=O)OCc4cccc(F)c4)cc23)c1 [Compound 16, (3-fluorophenyl)methyl N-[3-[3-(2-oxobutanoylamino)phenyl]-1H-pyrrolo[2,3-b]pyridin-5-yl]carbamate]
13 | 0.3 | C=CC(=O)Nc1cccc(-c2c[nH]c3ncc(NC(=O)OC(C)C)cc23)c1 [Compound 3, propan-2-yl N-[3-[3-(prop-2-enoylamino)phenyl]-1H-pyrrolo[2,3-b]pyridin-5-yl]carbamate]
14 | 323 | O=C(Nc1cnc2[nH]cc(-c3cccc(NC(=O)C(=O)c4ccccc4)c3)c2c1)OCc1ccccc1 [Compound 13, benzyl N-[3-[3-[(2-oxo-2-phenylacetyl)amino]phenyl]-1H-pyrrolo[2,3-b]pyridin-5-yl]carbamate]
15 | 291 | CCC(=O)C(=O)N1CC=C(c2c[nH]c3ncc(NC(=O)OCc4ccccc4)cc23)CC1 [Compound 27, benzyl N-[3-[1-(2-oxobutanoyl)-3,6-dihydro-2H-pyridin-4-yl]-1H-pyrrolo[2,3-b]pyridin-5-yl]carbamate]
16 | 880 | COCCC(=O)N(C)c1cccc(-c2c[nH]c3ncc(NC(=O)OC(C)C)cc23)c1 [Compound 7, propan-2-yl N-[3-[3-[3-methoxypropanoyl(methyl)amino]phenyl]-1H-pyrrolo[2,3-b]pyridin-5-yl]carbamate]
17 | 8 | CCC(=O)C(=O)Nc1cccc(-c2c[nH]c3ncc(NC(=O)OCc4ccccc4)cc23)c1 [Compound 4, benzyl N-[3-[3-(2-oxobutanoylamino)phenyl]-1H-pyrrolo[2,3-b]pyridin-5-yl]carbamate]
18 | 0.6 | C=CC(=O)N1CCC(c2c[nH]c3ncc(NC(=O)OCc4ccccc4)cc23)CC1 [Compound 31, benzyl N-[3-(1-prop-2-enoylpiperidin-4-yl)-1H-pyrrolo[2,3-b]pyridin-5-yl]carbamate]
19 | 3.6 | C=CC(=O)N1CC(O)(c2c[nH]c3ncc(NC(=O)OCc4ccccc4)cc23)C1 [Compound 34, benzyl N-[3-(3-hydroxy-1-prop-2-enoylazetidin-3-yl)-1H-pyrrolo[2,3-b]pyridin-5-yl]carbamate]
20 | 137 | CC(=O)C(=O)Nc1cccc(-c2c[nH]c3ncc(NC(=O)OCc4cccc(C#N)c4)cc23)c1 [Compound 20, (3-cyanophenyl)methyl N-[3-[3-(2-oxopropanoylamino)phenyl]-1H-pyrrolo[2,3-b]pyridin-5-yl]carbamate]
